# Assay results: paper PMC5652037 (EBioMedicine, 2017)
# Target: γ-secretase (catalytic subunit presenilin 1, PS1) (Cricetulus griseus, UniProt G3HNF2)
# Test: Aβ[…] secretion
# Assay type: cell-based
structure (smiles),measurement,value
CC(C)[C@H](O)C(=O)N[C@@H](C)C(=O)N[C@@H]1C(=O)N(C)CCc2ccccc21 [semagacestat],IC50,46.7 nM
